Test results from patent US20140107109A1, “AMINO-DIHYDROTHIAZINE AND AMINO-DIOXIDO DIHYDROTHIAZINE COMPOUNDS AS BETA-SECRETASE ANTAGONISTS AND METHODS OF USE” (Amgen Inc., priority 2012, published 2014).

Legend:
[1] = molecular target: Beta Secretase enzyme (BACE1) (Homo sapiens, UniProt P56817); experiment: In vitro enzymatic BACE FRET assay; type: biochemical; conditions: read-out: BACE1 FRET assay IC50
In short: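 BACE1 cleavage of a 50 nM fluorophore/quencher peptide FRET substrate ran for one hour in 0.05 M acetate pH 4.2, 10% DMSO, 100 uM genapol. Tris buffer raised pH to neutrality to stop the reaction before fluorescence was read (excitation 488 nm, […]).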

[2] = tested on: Aβ40 in conditioned medium of cells stably expressing Amyloid Precursor Protein (APP); experiment: In vitro BACE cell-based assay (HEK cell assay), Aβ40 sandwich ELISA; conditions: Homo sapiens, HEK293
In short: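 APP-stably expressing cells (40K/well, grown 24 h in DMEM/10% FBS) were treated 24 h with compounds in 10-point dose response starting at 100 μM or 10 μM, 0.1% DMSO final. Secreted Aβ40 was measured by sandwich ELISA (pAb40 capture, biotinylated 6E10 detection, europium time-resolved fluorescence); IC50 from percent inhibition.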

Cathepsin D (Cat D) = molecular target: T1, Cathepsin D (Cat D) (Homo sapiens, UniProt P07339); experiment: In vitro enzymatic Cathepsin D (Cat D) FRET assay; type: biochemical; conditions: read-out: CatD IC50
T1 construct: Recombinant Cat D was expressed in CHO cells; made in house; host or cells: CHO cells
T1 sequence (P07339 65-412, species assumed): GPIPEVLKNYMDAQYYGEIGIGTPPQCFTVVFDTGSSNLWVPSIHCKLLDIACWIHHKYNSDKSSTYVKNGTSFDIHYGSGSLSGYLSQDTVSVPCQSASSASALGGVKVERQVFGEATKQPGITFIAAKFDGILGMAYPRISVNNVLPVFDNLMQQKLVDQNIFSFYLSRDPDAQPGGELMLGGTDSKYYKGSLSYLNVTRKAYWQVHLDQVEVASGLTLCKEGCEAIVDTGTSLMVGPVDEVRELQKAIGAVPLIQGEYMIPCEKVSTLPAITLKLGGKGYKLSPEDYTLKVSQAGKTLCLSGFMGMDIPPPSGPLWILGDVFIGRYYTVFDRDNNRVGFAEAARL
In short: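 Recombinant Cat D expressed in CHO cells, used at 9 nM and pre-incubated one hour with serially diluted inhibitor in DMSO. Peptide substrate carries a fluorophore and quencher flanking the cleavage site; reaction stopped with Tris buffer raising pH to neutrality, then fluorescence read.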

Chain of Beta Secretase enzyme (BACE1) (P56817 46-501): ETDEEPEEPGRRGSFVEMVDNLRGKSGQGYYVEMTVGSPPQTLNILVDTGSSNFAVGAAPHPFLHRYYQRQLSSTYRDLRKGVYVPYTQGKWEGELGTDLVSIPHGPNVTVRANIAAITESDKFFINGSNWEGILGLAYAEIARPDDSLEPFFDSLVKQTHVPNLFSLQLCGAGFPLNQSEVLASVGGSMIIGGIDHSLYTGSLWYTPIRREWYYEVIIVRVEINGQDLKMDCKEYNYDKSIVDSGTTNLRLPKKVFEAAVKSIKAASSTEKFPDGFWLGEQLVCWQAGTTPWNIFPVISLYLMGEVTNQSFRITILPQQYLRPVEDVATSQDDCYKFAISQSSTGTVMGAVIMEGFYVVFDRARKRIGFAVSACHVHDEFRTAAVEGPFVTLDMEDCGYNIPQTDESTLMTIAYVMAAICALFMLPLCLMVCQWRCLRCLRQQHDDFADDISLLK

IC50 [1]	IC50 [2]	IC50 (Cathepsin D (Cat D))	Structure (SMILES)
0.00485 µM	0.0236 µM	379 µM	Cc1c(C(=O)Nc2ccc(F)c([C@]3(CF)CS(=O)(=O)C(C)(C)C(N)=N3)c2)nc2ccc(C#N)cn12 [Example 390, N-(3-((3S)-5-amino-3-(fluoromethyl)-6,6-dimethyl-1,1-dioxido-3,6-dihydro-2H-1,4-thiazin-3-yl)-4-fluorophenyl)-6-cyano-3-methylimidazo[1,2-a]pyridine-2-carboxamide]
0.00969 µM	0.0361 µM	303 µM	CC1(C)C(N)=N[C@](CF)(c2cc(NC(=O)c3cn4cc(Cl)ccc4n3)ccc2F)CS1(=O)=O [Example 391, N-(3-((3S)-5-amino-3-(fluoromethyl)-6,6-dimethyl-1,1-dioxido-3,6-dihydro-2H-1,4-thiazin-3-yl)-4-fluorophenyl)-6-chloroimidazo[1,2-a]pyridine-2-carboxamide]
0.104 µM	0.823 µM	97.6 µM	COc1ccc2nc(C(=O)Nc3ccc(F)c([C@]4(CF)CS(=O)(=O)C(C)(C)C(N)=N4)c3)c(C)n2c1 [Example 392, N-(3-((3S)-5-amino-3-(fluoromethyl)-6,6-dimethyl-1,1-dioxido-3,6-dihydro-2H-1,4-thiazin-3-yl)-4-fluorophenyl)-6-methoxy-3-methylimidazo[1,2-a]pyridine-2-carboxamide]
0.0117 µM	0.0605 µM	103 µM	Cc1c(C(=O)Nc2ccc(F)c([C@]3(CF)CS(=O)(=O)C(C)(C)C(N)=N3)c2)nc2ccc(F)cn12 [Example 393, N-(3-((3S)-5-amino-3-(fluoromethyl)-6,6-dimethyl-1,1-dioxido-3,6-dihydro-2H-1,4-thiazin-3-yl)-4-fluorophenyl)-6-fluoro-3-methylimidazo[1,2-a]pyridine-2-carboxamide]
0.0083 µM	0.0235 µM	> 14.8 µM	CCc1c(C(=O)Nc2ccc(F)c([C@]3(CF)CS(=O)(=O)C(C)(C)C(N)=N3)c2)nc2ccc(Cl)cn12 [Example 394, N-(3-((3S)-5-amino-3-(fluoromethyl)-6,6-dimethyl-1,1-dioxido-3,6-dihydro-2H-1,4-thiazin-3-yl)-4-fluorophenyl)-6-chloro-3-ethylimidazo[1,2-a]pyridine-2-carboxamide]
0.0377 µM	0.125 µM	822 µM	CC(C)c1c(C(=O)Nc2ccc(F)c([C@]3(CF)CS(=O)(=O)C(C)(C)C(N)=N3)c2)nc2ccc(Cl)cn12 [Example 395, N-(3-((3S)-5-amino-3-(fluoromethyl)-6,6-dimethyl-1,1-dioxido-3,6-dihydro-2H-1,4-thiazin-3-yl)-4-fluorophenyl)-6-chloro-3-(1-methylethyl)imidazo[1,2-a]pyridine-2-carboxamide]
0.00239 µM	0.862 µM	187 µM	Cc1cc(Cl)cnc1C(=O)Nc1ccc(F)c([C@]23C[C@H]2S(=O)(=O)C(C)(C)C(N)=N3)c1 [Example 396, N-(3-((1R,6R)-4-amino-3,3-dimethyl-2,2-dioxido-2-thia-5-azabicyclo[4.1.0]hept-4-en-6-yl)-4-fluorophenyl)-5-chloro-3-methyl-2-pyridinecarboxamide]
3.04 µM	3.25 µM	523 µM	Cc1nc(F)c([C@]2(C)CS(=O)(=O)C(C)(C)C(N)=N2)cc1NC(=O)c1ccc(Cl)cn1 [Example 397, N-(5-((3R)-5-amino-3,6,6-trimethyl-1,1-dioxido-3,6-dihydro-2H-1,4-thiazin-3-yl)-6-fluoro-2-methyl-3-pyridinyl)-5-chloro-2-pyridinecarboxamide]
0.002 µM	0.0114 µM	183 µM	CC1(C)C(N)=N[C@](C)(c2cc(NC(=O)c3ccc(Cl)cn3)cnc2F)CS1(=O)=O [Example 398, N-(5-((3R)-5-amino-3,6,6-trimethyl-1,1-dioxido-3,6-dihydro-2H-1,4-thiazin-3-yl)-6-fluoro-3-pyridinyl)-5-chloro-2-pyridinecarboxamide]
0.0031 µM	0.0393 µM	419 µM	CC1(C)C(N)=N[C@](C)(c2cc(NC(=O)c3ccc(F)cn3)cnc2F)CS1(=O)=O [Example 399, N-(5-((3R)-5-amino-3,6,6-trimethyl-1,1-dioxido-3,6-dihydro-2H-1,4-thiazin-3-yl)-6-fluoro-3-pyridinyl)-5-fluoro-2-pyridinecarboxamide]
0.0014 µM	0.0089 µM	156 µM	Cc1cc(OC(F)F)cnc1C(=O)Nc1cnc(F)c([C@]2(C)CS(=O)(=O)C(C)(C)C(N)=N2)c1 [Example 400, N-(5-((3R)-5-amino-3,6,6-trimethyl-1,1-dioxido-3,6-dihydro-2H-1,4-thiazin-3-yl)-6-fluoro-3-pyridinyl)-5-(difluoromethoxy)-3-methyl-2-pyridinecarboxamide]
0.00398 µM	0.0179 µM	757 µM	COc1ccc(C(=O)Nc2cnc(F)c([C@]3(C)CS(=O)(=O)C(C)(C)C(N)=N3)c2)nc1 [Example 401, N-(5-((3R)-5-amino-3,6,6-trimethyl-1,1-dioxido-3,6-dihydro-2H-1,4-thiazin-3-yl)-6-fluoro-3-pyridinyl)-5-methoxy-2-pyridinecarboxamide]
0.0011 µM	0.011 µM	2780 µM	CC1(C)C(N)=N[C@](C)(c2cc(NC(=O)c3cnc(OCC(F)(F)F)cn3)cnc2F)CS1(=O)=O [Example 402, N-(5-((3R)-5-amino-3,6,6-trimethyl-1,1-dioxido-3,6-dihydro-2H-1,4-thiazin-3-yl)-6-fluoro-3-pyridinyl)-5-(2,2,2-trifluoroethoxy)-2-pyrazinecarboxamide]
0.0019 µM	0.0146 µM	233 µM	CC1(C)C(N)=N[C@](C)(c2cc(NC(=O)c3ccc(C#N)cn3)cnc2F)CS1(=O)=O [Example 403, N-(5-((3R)-5-amino-3,6,6-trimethyl-1,1-dioxido-3,6-dihydro-2H-1,4-thiazin-3-yl)-6-fluoro-3-pyridinyl)-5-cyano-2-pyridinecarboxamide]
0.011 µM	0.0119 µM	247 µM	CC1(C)C(N)=N[C@](C)(c2cc(NC(=O)c3ccc(C(F)F)cn3)cnc2F)CS1(=O)=O [Example 404, N-(5-((3R)-5-amino-3,6,6-trimethyl-1,1-dioxido-3,6-dihydro-2H-1,4-thiazin-3-yl)-6-fluoro-3-pyridinyl)-5-(difluoromethyl)-2-pyridinecarboxamide]
0.0006 µM	0.027 µM	576 µM	CC1(C)C(N)=N[C@](CF)(c2cc(NC(=O)c3cnc(OCC(F)(F)F)cn3)ccc2F)CS1(=O)=O [Example 405, N-(3-((3S)-5-amino-3-(fluoromethyl)-6,6-dimethyl-1,1-dioxido-3,6-dihydro-2H-1,4-thiazin-3-yl)-4-fluorophenyl)-5-(2,2,2-trifluoroethoxy)-2-pyrazinecarboxamide]
0.00054 µM	0.0143 µM	> 400 µM	CC1(C)C(N)=N[C@](CF)(c2cc(NC(=O)c3ccc(C#N)cn3)ccc2F)CS1(=O)=O [Example 406, N-(3-((3S)-5-amino-3-(fluoromethyl)-6,6-dimethyl-1,1-dioxido-3,6-dihydro-2H-1,4-thiazin-3-yl)-4-fluorophenyl)-5-cyano-2-pyridinecarboxamide]
